Holding throughout (type): in vivo
Assay [1] is described as follows: hot plate method (analgesia in mice, Eddy and Leimbach). As to conditions: Mus musculus. On the procedure: (§1) Analgesia was assessed in mice utilizing the hot plate method of Eddy and Leimbach, Journal Pharmacology Expt. Therap., 107, 385, 1953, and/or the phenylbenzoquinone writhing method described by Sigmund et al, Proc. Soc. Exptl. Biol. Med., 95, 729, 1957. The hot plate method is based upon the delay in reaction time, following administration of an active analgesic when animals are placed on a heated […] plate maintained at constant temperature. Thus, the numbers of mice showing elevation of response times over control values after administration of various doses of an unknown compound are used to determine the median effective dose (ED50), which is that dose affecting 50% of the animals. The writhing method is based upon inhibition by an analgesic of the response which occurs when the chemical agent phenylbenzoquinone is injected intraperitoneally. This response is characterized by a twisting or stretching of the body and is referred to as writhing. Following administration of an analgesic or unknown compound into mice, the numbers of animals not responding to the phenylbenzoquinone challenge by writhing are determined.
(Thermal pain tests record how soon the animal reacts.)

Assay [2] is described as follows: phenylbenzoquinone (PBQ) writhing method (analgesia in mice, Sigmund et al). As to conditions: for ED50: Mus musculus. On the procedure: as §1
For assay [3], the system named is arrhythmia produced in dogs or cats by ouabain. The experiment in a line: anti-arrhythmic activity: preventing or reversing the arrhythmia produced by ouabain. As to conditions: amount compound 4 mg/kg.
The test system is the same in assay [4]. The assay is described as above. As to conditions: for Arrhythmia Reversal Time: ouabain arrhythmia. Here is the method:
Anti-arrhythmic activity was determined by measuring the effect of the test compound in preventing or reversing the arrhythmia produced in dogs or cats by ouabain. In the test method, the animal was pretreated with 10 mg/kg (i.v.) of the test compound. The animal was then given 15 micrograms/kg of ouabain (i.v.) followed by doses of 10 micrograms/kg of ouabain at 15-minute intervals (the last dose of ouabain could be less than 10 micrograms/kg) until an arrhythmia was produced which lasted for 10 minutes. The animal was then given 5 mg/kg (i.v.) of test compound. If the arrhythmia was not reversed after 3 minutes, 1 mg/kg of xylocaine was given (i.v.) to reverse the arrhythmia. If the arrhythmia was reversed within 3 minutes by the test compound, the period of time during which the test compound effected reversal was measured (Arrythmia Reversal Time).

The mark [5] stands for this setting: ip, mice, intraperitoneal route, read-out: Analgesic Tests ED50 Hot Plate I.P.
Setting [6] is: mice, oral route, read-out: Analgesic Tests ED50 Hot Plate P.O.
Where [7] appears, read: po, mice, phenylbenzoquinone writhing, oral route, read-out: Analgesic Tests ED50 PBQ P.O.
[8] abbreviates: mice, phenylbenzoquinone writhing, oral route.
Setting [9] is: mice, phenylbenzoquinone writhing, subcutaneous route.
Setting [10] is: ouabain given i.v. until an arrhythmia lasting 10 minutes, after 10 mg/kg i.v. pretreatment with test compound.
The mark [11] stands for this setting: sc, mice, phenylbenzoquinone writhing, subcutaneous route, read-out: Analgesic Tests ED50 PBQ S.C.
[12] abbreviates: dogs or cats, amount compound 5 mg/kg.

Counter-ions that a name gives are not always drawn.

As to `CCC(=O)OC1(C(C)CN(C)C)CCCCC1c1ccccc1` (single isomer, unassigned) [Example I (a), 1-(2-Dimethylamino-1-methylethyl)-2-phenylcyclohexyl propionate maleate (Major Isomer)], the ED50 in assay [1] (setting [5]) is above 40 mg/kg; in assay [1] (setting [6]) it was above 100 mg/kg; in assay [2] (setting [7]), 100 mg/kg.

For `CC(=O)OC1(C(C)CN(C)C)CCCCC1c1ccccc1` (single isomer, unassigned) [Example I (c), 1-(2-Dimethylamino-1-methylethyl)-2-phenylcyclohexyl acetate maleate (Major Isomer)], the ED50 in assay [1] (setting [5]) was determined as 10 mg/kg; in assay [1] (setting [6]) it was 40 mg/kg. For the same molecule, in assay [2] (setting [8]), the “Analgesic Tests ED50 PBQ P.O.” value came to 20 mg/kg. Moreover, the “Analgesic Tests ED50 PBQ S.C.” value in assay [2] (setting [9]) came to 3.8 mg/kg. For the same molecule, the “Arrhythmia Reversal Time” value in assay [3] amounted to 30 min. In assay [4] (setting [10]), the “Amount Ouabain” value came out at 85 µg/kg.

For `CC(=O)OC1(C(C)CN(C)C)CCCCC1c1ccccc1` (single isomer, unassigned; (+)) [Example X, (+)-1-(2-Dimethylamino-1-methylethyl)-2-phenylcyclohexyl acetate], the “Analgesic Tests ED50 PBQ P.O.” value in assay [2] (setting [8]) was above 100 mg/kg. Also, the “Analgesic Tests ED50 PBQ S.C.” value in assay [2] (setting [9]) is recorded as 16.5 mg/kg.

Take `CC(=O)OC1(C(C)CN(C)C)CCCCC1c1ccccc1` (single isomer, unassigned; (-)) [Example IX, (-)-1-(2-Dimethylamino-1-methylethyl)-2-phenylcyclohexyl acetate]: the “Analgesic Tests ED50 PBQ P.O.” value in assay [2] (setting [8]) is listed as 16 mg/kg. For the same molecule, in assay [2] (setting [9]), the “Analgesic Tests ED50 PBQ S.C.” value is reported as 2.15 mg/kg.

For the molecule `CC(CN1CCCC1)C1(O)CCCCC1c1ccccc1` (stereo not shown) [Example III, 1-(1-Methyl-2-pyrrolidinoethyl)-2-phenylcyclohexanol], the ED50 in assay [2] (setting [7]) is above 100 mg/kg; in assay [2] (setting [11]), around 30 mg/kg. The “Arrhythmia Reversal Time” value in assay [4] (setting [12]) is 5 min. In addition, the “Amount Ouabain” value in assay [4] (setting [10]) is 100 µg/kg.

Consider `CN(C)CCC1(O)CCCCC1c1ccccc1` (stereo not shown) [Example XIV, 1-(2-Dimethylaminoethyl)-2-phenylcyclohexanol], for which the ED50 was above 100 mg/kg in assay [2] (setting [7]) and around 30 mg/kg in assay [2] (setting [11]).

As to `CC(=O)OC1(CCN(C)C)CCCCC1c1ccccc1` (stereo not shown) [Example XV, 1-(2-Dimethylaminoethyl)-2-phenylcyclohexyl acetate cyclohexylsulfamate], the ED50 in assay [2] (setting [7]) was above 30 mg/kg; in assay [2] (setting [11]), above 10 mg/kg.

As to `C=CCN(CC=C)CC(C)C1(OC(C)=O)CCCCC1c1ccccc1` (stereo not shown) [Example XVI, 1-(2-Diallylamino-1-methylethyl)-2-phenylcyclohexyl acetate], the ED50 in assay [2] (setting [7]) was above 30 mg/kg; in assay [2] (setting [11]), above 3 mg/kg.

As for `COc1ccc(C2CCCCC2(O)C(C)CN(C)C)cc1.Cl` (stereo not shown) [Example XVII, 1-(2-Dimethylamino-1-methylethyl)-2-(p-methoxyphenyl)-cyclohexanol hydrochloride], the results for the ED50 in assay [2] (setting [7]) and in assay [2] (setting [11]) were above 100 mg/kg and above 30 mg/kg, respectively. Moreover, the “Arrhythmia Reversal Time” value in assay [4] (setting [12]) is 30 min. Also, the “Amount Ouabain” value in assay [4] (setting [10]) worked out at 80 µg/kg.

`CC(=O)OC1(C(C)CN2CCN(c3ccccc3)CC2)CCCCC1c1ccccc1.Cl` (stereo not shown) [Example XXI, 1-(1-Methyl-2-[4-phenyl-1-piperazinyl]ethyl)-2-phenylcyclohexyl acetate hydrochloride]: the ED50 was 5.9 mg/kg in assay [2] (setting [7]) and above 100 mg/kg in assay [2] (setting [11]).

As to `CC(=O)OC1(C(C)CN2CCCC2)CCCCC1c1ccccc1.O=S(=O)(O)O` (stereo not shown) [Example XXII, 1-(1-Methyl-2-pyrrolidinoethyl)-2-phenylcyclohexyl acetate sulfate], the ED50 in assay [2] (setting [7]) was above 30 mg/kg; in assay [2] (setting [11]) it was around 10 mg/kg.

`CC(N)C1(O)CCCCC1c1ccccc1.Cl` (stereo not shown) [Example XXIII, 1-(1-Aminoethyl)-2-phenylcyclohexanol hydrochloride]: the ED50 was above 100 mg/kg in assay [2] (setting [7]) and above 30 mg/kg in assay [2] (setting [11]). Also, in assay [4] (setting [12]), the “Arrhythmia Reversal Time” value came to 5 min. The “Amount Ouabain” value in assay [4] (setting [10]) came to 95 µg/kg.

Regarding `COc1ccc(C2CCCCC2(OC(C)=O)C(C)CN(C)C)cc1` (stereo not shown) [Example XXV, 1-(2-Dimethylamino-1-methylethyl)-2-(p-methoxyphenyl)-cyclohexylacetate hydrochloride], the ED50 was above 100 mg/kg in assay [2] (setting [7]) and above 30 mg/kg in assay [2] (setting [11]).

In the case of `CNCC(C)C1(O)CCCCC1c1ccccc1.Cl` (stereo not shown) [Example XXVI, 1-(2-Methylamino-1-methylethyl)-2-phenylcyclohexanol hydrochloride], the results for the ED50 in assay [2] (setting [7]) and in assay [2] (setting [11]) were above 30 mg/kg and above 10 mg/kg, respectively.

In the case of `CC(N(C)C)C1(O)CCCCC1c1ccccc1.Cl` (stereo not shown) [Example XXVII, 1-(1-Dimethylaminoethyl)-2-phenylcyclohexanol hydrochloride], the ED50 in assay [2] (setting [7]) and in assay [2] (setting [11]) was above 100 mg/kg throughout.

As for `CC(CN(C)C)C1(O)CCCCC1c1ccc(O)cc1` (stereo not shown) [Example XXX, 1-(2-Dimethylamino-1-methylethyl)-2-(p-hydroxyphenyl)-cyclohexanol], the ED50 was above 100 mg/kg in assay [2] (setting [7]) and above 30 mg/kg in assay [2] (setting [11]).

For the molecule `CCN(CC)CC(=O)Nc1c(C)cccc1C` [Lidocaine, reference compound], in assay [4] (control (Lidocaine) line), the “Amount Ouabain” value is 60 to 130 µg/kg. Moreover, in assay [4] (dogs or cats, control, amount compound 1-2 mg/kg), the “Arrhythmia Reversal Time” value is 1 to 3 min.

Take `CCOC(=O)C1(c2ccccc2)CCN(C)CC1` [Meperidine, reference compound]: the ED50 in assay [1] (setting [5]) was determined as 5.8 mg/kg; in assay [1] (setting [6]) it was 81 mg/kg; in assay [2] (setting [7]) it was 18 mg/kg; in assay [2] (setting [11]), 1.7 mg/kg.

Take `CN1CC[C@]23c4c5ccc(O)c4O[C@H]2[C@@H](O)C=C[C@H]3[C@H]1C5` [Morphine, reference compound]: the ED50 in assay [1] (ip, read-out: Analgesic Tests ED50 Hot Plate I.P.) is 1.8 mg/kg; in assay [1] (po, read-out: Analgesic Tests ED50 Hot Plate P.O.) it was 18 mg/kg; in assay [2] (po, read-out: Analgesic Tests ED50 PBQ P.O.), 2.6 mg/kg; in assay [2] (sc, read-out: Analgesic Tests ED50 PBQ S.C.) it was 0.5 mg/kg.

`CC(=O)OC1(C(C)CN2CCCCC2)CCCCC1c1ccccc1.Cl` (stereo not shown) [XII, 1-(1-Methyl-2-piperidinoethyl)-2-phenylcyclohexyl acetate hydrochloride]: the figures for the ED50 in assay [2] (setting [7]) and in assay [2] (setting [11]) were around 60 mg/kg and around 30 mg/kg, respectively.

Take `C=CCN(C)CC(C)C1(OC(C)=O)CCCCC1c1ccccc1` (stereo not shown) [XIII, 1-(2-Allylmethylamino-1-methylethyl)-2-phenylcyclohexyl acetate]: the figures for the ED50 in assay [2] (setting [7]) and in assay [2] (setting [11]) were around 100 mg/kg and around 30 mg/kg, respectively.

On to `CC(=O)OC1(C(C)CN2CCOCC2)CCCCC1c1ccccc1.Cl` (stereo not shown) [XIX, 1-(1-Methyl-2-morpholinoethyl)2-phenylcyclohexyl acetate hydrochloride], for which the ED50 in assay [2] (setting [7]) was determined as 40 mg/kg; in assay [2] (setting [11]), 56.2 mg/kg.

On to `CNC(C)C1(O)CCCCC1c1ccccc1.Cl` (stereo not shown) [XXIV, 1-(1-Methylaminoethyl)-2-phenylcyclohexanol hydrochloride], for which the ED50 in assay [2] (setting [7]) was above 100 mg/kg; in assay [2] (setting [11]), above 30 mg/kg. The “prevention of arrhythmia by pretreatment” value in assay [4] (dogs or cats, 10 mg/kg pretreatment, then ouabain) was “prevented arrhythmia”. In assay [4] (setting [10]), the “Amount Ouabain” value was found to be 140 µg/kg.

Consider `CC(=O)OC1(C(C)N(C)C)CCCCC1c1ccccc1` (stereo not shown) [XXVIII, 1-(1-Dimethylaminoethyl)-2-phenylcyclohexyl acetate cyclohexylsulfamate], for which the figures for the 50% effective dose (ED50) in assay [2] (setting [7]) and in assay [2] (setting [11]) were above 30 mg/kg and above 10 mg/kg, respectively.

As for `CC(=O)OC1(C(C)CN(C)C)CCCCC1c1ccc(O)cc1.Cl` (stereo not shown) [XXXI, 1-(2-Dimethylamino-1-methylethyl)-2-(p-hydroxyphenyl)cyclohexyl acetate hydrochloride], the ED50 in assay [2] (setting [7]) and in assay [2] (setting [11]) was above 100 mg/kg each time.

In the case of `COc1ccc(C2CCCCC2(O)C(C)CN(C)C)cc1OC` (stereo not shown) [XXXII, 2-(3,4-Dimethoxyphenyl)-1-(2-dimethylamino-1-methylethyl)cyclohexanol p-toluenesulfonate], the ED50 in assay [2] (setting [7]) is above 100 mg/kg; in assay [2] (setting [11]) it was around 30 mg/kg.

In the case of `COc1ccc(C2CCCCC2(OC(C)=O)C(C)CN(C)C)cc1OC.Cl` (stereo not shown) [XXXIII, 2-(3,4-Dimethoxyphenyl)-1-(2-dimethylamino-1-methylethyl)cyclohexyl acetate hydrochloride], the results for the ED50 in assay [2] (setting [7]) and in assay [2] (setting [11]) were above 100 mg/kg and above 30 mg/kg, respectively. For the same molecule, the “Arrhythmia Reversal Time” value in assay [4] (setting [12]) amounted to 30 min. Besides, the “Amount Ouabain” value in assay [4] (setting [10]) came to 70 µg/kg.

Broadly, the ED50 is the midpoint of the dose-response relation.

Source of the values: patent publication US3974157A, “1-(Amino-alkyl)-2-aryl-cyclohexane alcohols and esters” (Pennwalt Corporation, priority 1975, dated 1976).
